According to patent US20250367121A1, “DOSAGE FORMS COMPRISING ACTIVE PHARMACEUTICAL INGREDIENTS” (AXSOME THERAPEUTICS, INC., priority 2018, published 2025):

Assay: clinical
Details: human, in vivo

With `CN(C)CCc1c[nH]c2ccc(Cn3cncn3)cc12` [Rizatriptan, rizatriptan] the Cmax was 20.7 ng/mL and the Tmax was 45 min.
